According to patent US5298523A, “Method for treating transplant patients using mycalamide compounds” (priority 1992, dated 1994):
Converted amounts (≈) assume the structure as drawn. Where two headings read alike, the source gives them in different places.

Assays:
[1] = tested on: human peripheral blood lymphocytes (PBL); assay: Mitogen-induced proliferation of human peripheral blood lymphocytes; type: cell-based; conditions: Lymphocyte; for activity at 0.5 µg/mL: 5.0 × 10^-1 μg/ml; for activity at 0.05 µg/mL: 5.0 × 10^-2 μg/ml; for activity at 0.005 µg/mL: 5.0 × 10^-3 μg/ml; for activity at 0.0005 µg/mL: 5.0 × 10^-4 μg/ml; for activity at 50 pg/mL: 5.0 × 10^-5 μg/ml; for activity at 5 pg/mL: 5.0 × 10^-6 μg/ml; for activity at 500 fg/mL: 5.0 × 10^-7 μg/ml; for activity at 50 fg/mL: 5.0 × 10^-8 μg/ml; for activity at 5 fg/mL: 5.0 × 10^-9 μg/ml; for activity at 5e-10 µg/mL: 5.0 × 10^-10 μg/ml; for activity at 5e-11 µg/mL: 5.0 × 10^-11 μg/ml
Description: Preparation of human peripheral blood leukocyte (PBL) suspensions. Human peripheral blood suspensions were prepared from Leukotrap blood filters as follows: Leukotrap filters containing processed leukocytes from random, unrelated blood donors were obtained from the Indian River Blood Bank (Vero Beach, Fla.). Buffy-coat blood cell suspensions were recovered by reverse-flow phosphate-buffered saline purging and centrifugation for 15 minutes at 475× g. Buffy coats were removed, and 5 ml of the suspension was layered onto 5 ml of Histopaque gradient material. The Histopaque gradients were centrifuged at 475× g for 30 minutes. Lymphocytes were removed from the Histopaque-medium interface, and washed twice with 10 ml of PBS (Dulbecco's phosphate-buffered saline without CaCl2 and MgCl2.6H2 O). The final cell pellet was resuspended in TCM, and the cell concentration adjusted to 2×10^6 cells/ml.

[2] = tested on: graft vs. host reaction, CB6F1 mice grafted with BALB/c splenocytes; assay: Graft vs. host reaction (Simonsen splenomegaly assay); type: in vivo, mouse; conditions: for % Suppression / Number of surviving mice at the end of the experiment / Stim. index: Days 1-7
Description: Graft vs. host reaction. In vivo studies with mycalamide A utilized the […]→F1, GVHR model (Simonsen splenomegaly assay). CB6F1 male mice, 4 weeks of age, were injected intraperitoneally with 5×10^7 splenocytes from BALB/c male mice, 8 weeks of age, on day 0 (BALB/c→CB6F1). A syngeneic control group (CB6F1 →CB6F1) was similarly prepared and served as the negative control. For experiment 1, the grafted mice were divided into 5 treatment groups of 5 mice each. Groups were injected intraperitoneally with mycalamide A (dissolved initially in ethanol followed by dilution in sterile phosphate-buffered saline as a vehicle) or vehicle alone on days 1-7. For experiment 2, the grafted mice were divided into 7 treatment groups of 5 mice each and similarly injected intraperitoneally with mycalamide A, an immunosuppressive standard, didemnin B, or vehicle alone on days 1-7. On day 7 all groups were sacrificed, spleens excised, and the mean spleen weight and stimulation index calculated for each group. The stimulation index was calculated as follows: [formula] A spleen index of 1.3 or greater is considered a positive response.
^a CB6F1 mice (5 per group) were grafted with 5 × 10^7
BALB/c splenocytes, intraperitoneally on Day 0. Groups were injected
intraperitoneally with drug or vehicle on Days 1-7. Positive indicates
grafted mice receiving vehicle alone.
^b Number of surviving mice at the end of the experiment.
^c Stimulation index (SI) = (spleen weight of test group/body weight
of test group)/(spleen weight of syngeneic group/body weight of syngeneic
^d Suppression = [(SI of positive control) (SI of test group)]/[(SI
of positive control) (SI of syngeneic group)].
^e Didemnin B immunosuppressive standard.

[3] = tested on: allogeneic skin graft rejection, CBA mice; assay: Allogeneic skin graft rejection (BALB/c to CBA); type: in vivo, mouse; parameters: key to Graft Scores: 0: rejection; +: no rejection; conditions: 0.01 mg/kg
Description: Allogeneic skin grafting. The effects of mycalamide A on the rejection of allogeneic skin grafts were determined using the BALB/c→CBA skin graft model. Skin grafts were prepared from BALB/c donors as follows: donors were sacrificed by cervical dislocation and hair shaved from back, sides, and torso. A depilatory agent was used to remove any remaining hair. The prepared skin area was then swabbed with a Betadine and alcohol solution. The skin was removed by making an incision at the base of the tail, and the skin was lifted and separated from the underlying muscle in two sections. The skin was then placed in a sterile petri dish containing sterile, ice cold normal saline. A sterile, #7 cord borer was used to punch out approximately 16 graft discs from each animal skin preparation. Recipient CBA mice were anesthetized with 1.5 cc ketamine:xylamine. The back of each recipient animal was shaved and a depilatory agent used to remove excess hair. The prepared area was swabbed with Betadine:alcohol, and a small plug of skin, approximately the size of the prepared grafts, was removed by excision. The skin graft plug was then placed in the center of the excised region and the resulting transplanted area sprayed with a barrier film (liquid skin). Animals were placed one to a cage and supplied with sterile food and water, ad libitum. Mice were observed each day for signs of rejection of the graft (a shrinking and thickening of the graft with eventual sloughing).

[4] = Con A, read-out: Con A, % of control
[5] = PHA, read-out: PHA, % of control
[6] = Experiment #2, 0.005 mg/kg i.p.

## C=C1CC(OC)(C(O)C(=O)NC2OCOC3C2OC(CC(O)CO)C(C)(C)C3OC)OC(C)C1C (stereo not shown) [Mycalamide A, mycalamide A]
[1]; [4]
  activity at 0.5 µg/mL: 0%
  activity at 0.05 µg/mL: 0%
  activity at 0.005 µg/mL: 0%
  activity at 0.0005 µg/mL: 10%
  activity at 50 pg/mL: 44%
  activity at 5 pg/mL: 74%
  activity at 500 fg/mL: 78%
  activity at 50 fg/mL: 82%
  activity at 5 fg/mL: 90%
  activity at 5e-10 µg/mL: 99%
  activity at 5e-11 µg/mL: 93%
[1]; [5]
  activity at 0.5 µg/mL: 0%
  activity at 0.05 µg/mL: 0%
  activity at 0.005 µg/mL: 0%
  activity at 0.0005 µg/mL: 9%
  activity at 50 pg/mL: 41%
  activity at 5 pg/mL: 41%
  activity at 500 fg/mL: 40%
  activity at 50 fg/mL: 43%
  activity at 5 fg/mL: 42%
  activity at 5e-10 µg/mL: 36%
  activity at 5e-11 µg/mL: 47%
[1]; read-out: IC50, PHA stimulation of human PBL
  IC50: ~0.0057 ng/mL (≈ 0.0113 nM)
[2]; Experiment #1, 0.01 mg/kg i.p.
  % Suppression: 102%
  Number of surviving mice at the end of the experiment: 5/5
  Stim. index: 0.99
[2]; Experiment #1, 0.05 mg/kg i.p.
  % Suppression: 0%
  Number of surviving mice at the end of the experiment: 0/5
[2]; Experiment #1, 0.1 mg/kg i.p.
  % Suppression: 0%
  Number of surviving mice at the end of the experiment: 0/5
[2]; [6]
  % Suppression: 0%
  Number of surviving mice at the end of the experiment: 5/5
  Stim. index: 1.92
[2]; Experiment #2, 0.01 mg/kg i.p.
  % Suppression: 88%
  Number of surviving mice at the end of the experiment: 5/5
  Stim. index: 1.06
[2]; Experiment #2, 0.05 mg/kg i.p.
  % Suppression: 0%
  Number of surviving mice at the end of the experiment: 0/5
[2]; Experiment #2, 0.1 mg/kg i.p.
  % Suppression: 0%
  Number of surviving mice at the end of the experiment: 0/5
[2]; dosages higher than 0.01 mg/kg i.p., in words
  toxicity in mice: toxic
[2]; dosages lower than 0.01 mg/kg i.p., in words
  immunosuppression in GVHR: not immunosuppressive
[3]; Q2D × 7, 1-14 IP, D35
  % Alive: 0%
  Graft Scores: +
[3]; twice daily, intraperitoneally for 14 days
  mean rejection time: 17.8 days
[3]; twice daily, intraperitoneally for 14 days, in words
  effect on rejection of allogeneic skin grafts: suppressed the normal rejection of allogeneic skin grafts
